Tests used:
Assay type in all cases: cell-based
[1] = tested on: clinical multidrug-resistant and carbapenem-resistant Escherichia coli (CR-EC); test: Survival rate (dot plate counting) of clinical multidrug-resistant and carbapenem-resistant Escherichia coli, 18 strains; conditions: 10 hours
Procedure: (§1) Single bacterial colonies were selected and inoculated into a 5 mL LB medium, cultivated at 37° C. (clinically multidrug-resistant and carbapenem-resistant or multidrug-resistant but carbapenem-sensitive Escherichia coli, clinically multidrug-resistant and carbapenem-resistant or multidrug-resistant but carbapenem-sensitive Klebsiella pneumoniae, clinically multidrug-resistant and carbapenem-resistant or multidrug-resistant but carbapenem-sensitive Pseudomonas aeruginosa, methicillin-resistant Staphylococcus aureus, and sensitive bacteria for each type of bacteria) or 30° C. […]
(§2) Thirty-six clinical multidrug-resistant Escherichia coli samples were prepared according to Embodiment 1, of which 18 were clinical multidrug-resistant and carbapenem-resistant Escherichia coli (abbreviated as CR-EC) and 18 were clinical multidrug-resistant but carbapenem-sensitive Escherichia coli (abbreviated as MDR-EC). […] The number of bacteria was counted. […]

[2] = tested on: clinical multidrug-resistant but carbapenem-sensitive Escherichia coli (MDR-EC); test: Survival rate (dot plate counting) of clinical multidrug-resistant but carbapenem-sensitive Escherichia coli, 18 strains; conditions: 10 hours
Procedure: as §1, §2

[3] = tested on: clinically multidrug-resistant and carbapenem-resistant Escherichia coli strain No. 28; test: Live bacterial count / survival rate of CR Escherichia coli strain No. 28 (antibiotic concentration, sodium formate concentration, time, other antibiotics)
Procedure: Single bacterial colonies were selected and inoculated into a 5 mL LB medium, cultivated at 37° C. (clinically multidrug-resistant and carbapenem-resistant or multidrug-resistant but carbapenem-sensitive Escherichia coli, clinically multidrug-resistant and carbapenem-resistant or multidrug-resistant but carbapenem-sensitive Klebsiella pneumoniae, clinically multidrug-resistant and carbapenem-resistant or multidrug-resistant but carbapenem-sensitive Pseudomonas aeruginosa, methicillin-resistant Staphylococcus aureus, and sensitive bacteria for each type of bacteria) or 30° C. (Edwardsiella tarda and Vibrio) at 200 rpm for 16-24 hours; an appropriate amount of a bacterial solution was taken for centrifugation at 8000 rpm for 5 min to collect bacterial cells, the supernatant was removed, and the bacterial cells were washed with an equal volume of 0.85% normal saline for 3 times and suspended in M9 medium (containing 10 mM proline, 2 mM MgSO4. 0.1 mM CaCl2)), and a base bacterial solution was cultured with M9 to an OD600 concentration of 0.6 and divided into 5 mL test tubes for later use.
Taking clinically multidrug-resistant and carbapenem-resistant Escherichia coli strain No. 28 as an example, adding different concentrations of sodium formate or different concentrations of antibiotics and under different treating times, the effect of improving the sensitivity of multidrug-resistant Escherichia coli to micronomicin was studied in depth.
To understand how sodium formate increased the sensitivity of bacteria to micronomicin at different antibiotic concentrations, on the basis of exogenous addition of 20 mM sodium formate, 30-480 μg/mL (several concentrations of) micronomicin was added to treat bacteria. No antibiotic addition was used as a control, and live bacterial counts were performed to compare the survival rates of bacteria with and without the addition of sodium formate at the same antibiotic concentration after 10 hours.
To investigate whether there was a gradient effect between the concentration of sodium formate and the bactericidal efficiency, as well as its optimal bactericidal concentration, different concentrations of sodium formate (0.625 mM-40 mM) were added on the basis of 60 μg/mL micronomicin addition for 10 hours, then live bacteria were counted, and the survival rate was calculated according to a formula as the following: the number of live bacteria with different concentrations of sodium formate addition/the number of live bacteria without sodium formate addition×100%.
Further research was conducted on adding 20 mM sodium formate and 60 μg/mL micronomicin and counting live bacteria at different time, and the relationship between its bactericidal efficiency and time was observed.
To investigate whether the addition of sodium formate is effective to antibiotics other than micronomicin in multidrug-resistant Escherichia coli, a clinical multidrug-resistant and carbapenem-resistant Escherichia coli sample No. 28 was prepared according to Embodiment 1, and 20 mM sodium formate and different kinds of antibiotics were added, respectively. After 10 hours of action, the number of live bacteria was counted, and the survival rate of the bacteria with different antibiotics was calculated after adding sodium formate.

| Compound | survival rate ([1]; 60 μg/mL micronomicin only, all 18 strains) | survival rate ([2]; 60 μg/mL micronomicin only, remaining 8 strains) | number of live bacteria ([3]; 60 μg/mL micronomicin only, 1-4 hours) | survival rate ([3]; 60 μg/mL micronomicin only, 6 hours) | survival rate ([3]; 60 μg/mL micronomicin only, 16 hours) | survival rate ([3]; 60 μg/mL micronomicin only, 24 hours) | survival rate ([3]; micronomicin 30 μg/mL without sodium formate, 10 hours) | survival rate ([3]; micronomicin 60 μg/mL without sodium formate, 10 hours) | survival rate ([3]; micronomicin 120 μg/mL without sodium formate, 10 hours) | survival rate ([3]; micronomicin 240 μg/mL without sodium formate, 10 hours) | survival rate ([3]; micronomicin 480 μg/mL without sodium formate, 10 hours) | bacterial survival rate ([3]; sodium formate gradient experiment, control group: 60 μg/mL micronomicin without sodium formate, 10 hours) | killing effect on bacteria ([1]; 20 mM sodium formate alone) | killing effect on bacteria ([2]; 20 mM sodium formate alone) |
| --- | --- | --- | --- | --- | --- | --- | --- | --- | --- | --- | --- | --- | --- | --- |
| CNC[C@@H]1CC[C@@H](N)[C@@H](O[C@H]2[C@H](O)[C@@H](O[C@H]3OC[C@](C)(O)[C@H](NC)[C@H]3O)[C@H](N)C[C@@H]2N)O1 [micronomicin] | 67-97% | less than 60% | remained basically unchanged | 87.96% | 72.72% | 34.64% | 100% | 77.37% | 35.87% | 29.77% | 29.01% | 72.3% | – | – |
| O=C[O-].[Na+] [sodium formate] | – | – | – | – | – | – | – | – | – | – | – | – | no killing effect | no killing effect |

Source: US20250041254A1, “USE OF SODIUM FORMATE IN PREPARATION OF AN ANTI-INFECTIVE DRUG” (priority 2022, published 2025)
